In patent EP1210336B1, “SUBSTITUTED BENZIMIDAZOLES AS NON-NUCLEOSIDE INHIBITORS OF REVERSE TRANSCRIPTASE” (THE UNITED STATES OF AMERICA, as represented by the …, priority 1999, dated 2001):
pEC50, pIC50: −log10 of the molar value.

How the values were obtained:
NL4-3 (WT) = test: Cytopathic cell killing assay, cross-resistance profile, infected MT-4 cells; type: cell-based, HIV-1
In short: (§1)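 Infected cultures (MOI chosen for complete cell death at 6 days, isolates matched by pre-titering) received serially diluted compound. Surviving cells were detected colorimetrically via XTT at 450 nm.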

[1] = test system: HIV-1 isolate 4xAZT/Y181C; test: as above; type: cell-based
In short: as §1

HIV-1 isolate 4xAZT = test: as above; type: cell-based
In short: as §1

HIV-1 variant A98G = test: as above; type: cell-based; details: isolate A98G
In short: as §1

HIV-1 variant K101E = test: as above; type: cell-based
In short: as §1

HIV-1 variant K103N = test: as above; type: cell-based; details: isolate K103N
In short: as §1

HIV-1 variant L100I = test: as above; type: cell-based; details: isolate L1001
In short: as §1

HIV-1 variant L74V = test: as above; type: cell-based
In short: as §1

HIV-1 variant V106A = test: as above; type: cell-based; details: isolate V106A
In short: as §1

HIV-1 variant V108I = test: as above; type: cell-based
In short: as §1

HIV-1 variant V179D = test: as above; type: cell-based; details: isolate V179D
In short: as §1

HIV-1 variant Y181C = test: as above; type: cell-based; details: isolate Y181C
In short: as §1

HIV-1 variant Y188C = test: as above; type: cell-based; details: isolate Y188C
In short: as §1

[2] = test system: HIV-1 isolate 4xAZT/L100I; test: as above; type: cell-based
Description: The various HIV isolates tested in the Figures are those corresponding to wild-type virus (NL4-3) and the other strains listed by their RT mutations. The three 4xAZT isolates included in the Figures represent AZT drug-resistant variants. […]
Briefly, in this method cells (e.g., the CEM-SS cell line, available from the NIAID AIDS Research and Reference Program [ARRRP]) were seeded at a density of 5 x 10^3 cells/well, into the wells of a 96-well microtiter plate. The cells were then infected with HIV virus (either mutant or WT), at a multiplicity of infection (MOI) previously determined to provide complete cell killing by 6 days of culture post-infection (e.g., MOI of 0.01-0.05). Each of the HIV isolates was pre-titered to induce equivalent levels of infection based on cell killing or virus production, prior to their use in these assays. A range of test compound concentrations was added to the wells in triplicate (e.g., serial half-log dilutions) to evaluate inhibition of HIV infection. Controls for each assay included drug controls (drug colorimetric control wells), drug cytotoxicity control wells (cells with drug), virus control wells (cells with virus), and cell viability controls (cells only). Positive control drugs (e.g., AZT and ddC) were also run in parallel.
After six days of incubation at 37°C, cell viability was determined spectrophotometrically at 450 nm for each well, using the metabolic reduction of XTT to a soluble colored formazan. (See, Gartner and Popovic, "Virus Isolation and Production, in Aldovini and Walker (eds.), Techniques in HIV Research, Stockton Press, NY, pp. […] [1991]; and Nara and Fischinger, "Quantitative Infectivity Assay for HIV-1 and HIV-2," Nature 332:469-470 [1988]).
The in vitro therapeutic index (TI50) was defined as the fold-difference between the EC50 and IC50.

HIV-1 WT RT = target: T1, HIV-1 WT RT (Human immunodeficiency virus type 1 group M subtype B, UniProt P03366); details: reported by Pauwels et al. (TIBO) and Buckheit et al. (thiazolobenzimidazole); read-out: IC50 for rC:dG; cited from earlier work
T1 construct: purified RT protein (0.015 mg/mL) was incubated in a 100 µL reaction mixture

[3] = Human immunodeficiency virus 1, MT4, Table 4
[4] = Human immunodeficiency virus 1, MT4, Table 9
[5] = Human immunodeficiency virus 1, MT4, Table 10 (values in µM)

`CC1Cn2c(=O)[nH]c3cccc(c32)CN1` (stereo not drawn) [TIBO, 4,5,6,7-tetrahydro-5-methylimidazo[4,5,1-jk][1,4]benzodiazepin-2(1H)-one, reference compound] gave a pEC50 (NL4-3 (WT); Human immunodeficiency virus 1, NL43, MT4, Table 4, isolate NL4-3 (WT)) of 6.52, a pEC50 (NL4-3 (WT); Human immunodeficiency virus 1, NL43, MT4, Table 9, isolate NL4.3) of 6.52 and an EC50 (NL4-3 (WT); Human immunodeficiency virus 1, NL43, MT4, Table 10 (values in µM), isolate NL4-3 (WT)) of 0.3 µM. The pEC50 ([1]; Human immunodeficiency virus 1, MT4, Table 4, isolate 4xAZT/Y181C) was 5.70, the pEC50 ([1]; Human immunodeficiency virus 1, MT4, Table 9, isolate 4XAZT /Y181C) was 5.70 and the pEC50 (HIV-1 isolate 4xAZT; Human immunodeficiency virus 1, MT4, Table 4, isolate 4xAZT) was 6.52. For the same compound, the pEC50 (HIV-1 isolate 4xAZT; Human immunodeficiency virus 1, MT4, Table 9, isolate 4XAZT) was 6.52, the pEC50 (HIV-1 variant A98G; [3]) was 4.96 and the pEC50 (HIV-1 variant A98G; [4]) was 4.96. It also gave a pEC50 (HIV-1 variant K101E; Human immunodeficiency virus 1, MT4, Table 4, isolate K101E) of 4.76, a pEC50 (HIV-1 variant K101E; Human immunodeficiency virus 1, MT4, Table 9, isolate KIOIE) of under 5.00 and an EC50 (HIV-1 variant K101E; Human immunodeficiency virus 1, MT4, Table 10 (values in µM), isolate K101E) of 17.4 µM. For the same compound, the pEC50 (HIV-1 variant K103N; [3]) was 4.76, the pEC50 (HIV-1 variant K103N; [4]) was under 5.00 and the EC50 (HIV-1 variant K103N; [5]) was 17.4 µM. It also gave a pEC50 (HIV-1 variant L100I; [3]) of 4.76, a pEC50 (HIV-1 variant L100I; [4]) of under 5.00 and an EC50 (HIV-1 variant L100I; [5]) of 17.4 µM. It also gave a pEC50 (HIV-1 variant L74V; Human immunodeficiency virus 1, MT4, Table 4, isolate L74V) of 6.70, a pEC50 (HIV-1 variant L74V; Human immunodeficiency virus 1, MT4, Table 9, isolate 1.74 V) of 6.70 and a pEC50 (HIV-1 variant V106A; [3]) of 4.90. It also gave a pEC50 (HIV-1 variant V106A; [4]) of under 5.00, a pEC50 (HIV-1 variant V108I; Human immunodeficiency virus 1, MT4, Table 4, isolate V108I) of 5.62 and a pEC50 (HIV-1 variant V108I; Human immunodeficiency virus 1, MT4, Table 9, isolate V1081) of 5.62. The EC50 (HIV-1 variant V108I; Human immunodeficiency virus 1, MT4, Table 10 (values in µM), isolate V108l) was 2.4 µM, the pEC50 (HIV-1 variant V179D; [3]) was 5.21 and the pEC50 (HIV-1 variant V179D; [4]) was 5.21. The pEC50 (HIV-1 variant Y181C; [3]) was 5.38, the pEC50 (HIV-1 variant Y181C; [4]) was 5.38 and the EC50 (HIV-1 variant Y181C; [5]) was 4.2 µM. The pEC50 (HIV-1 variant Y188C; [3]) was under 4.76, the pEC50 (HIV-1 variant Y188C; [4]) was under 4.70 and the EC50 (HIV-1 variant Y188C; [5]) was over 17.4 µM. For the same compound, the pEC50 ([2]; Human immunodeficiency virus 1, MT4, Table 4, isolate 4xAZT/L.1001) was under 4.76, the pEC50 ([2]; Human immunodeficiency virus 1, MT4, Table 9, isolate 4XAZT /L1001) was under 4.70 and the pIC50 (HIV-1 WT RT) was 7.22.
